The source of these data is US20230181578A1, “MODULATION OF MIXED LINEAGE KINASE DOMAIN-LIKE PROTEIN SIGNALING” (EBERHARD KARLS UNIVERSITÄT TÜBINGEN, priority 2020, published 2023).

Positions count from the first letter of the chain named.

The test system of series [1] is phosphorylated MLKL. The experiment in a line: MLKL phosphorylation, Western-blot, TSZ-treated HT-29 wt cells. The series is classed as cell-based, human. Conditions: FIG. 6C. From the text: (§1) A-B) Dose-dependence of the inhibitory effect of MBA-h1 (A) or MBA-m1M (B) on necroptotic cell death in human (HT-29) and mouse (NIH-3T3) cells. C-D) Effect of MBA-h1 (C) or MBA-m1 (D) on MLKL phosphorylation. E-F) Effect of MBA-h1 (E) or MBA-m1 (F) on MLKL translocation to the plasma membrane. HT-29 (C and E) or NIH-3T3 (D and F) wt cells were TSZ-treated in the presence or not of the inhibitors. NSA was used as a control in C and E. G) Inhibitory effect of MBA-m1 in MLKL ko cells transfected with mMLKL2 or the mutant mMLKL2_I84A_F87A. Cells were transfected with the different variants of MLKL-GFP. The dead cell population was calculated from transfected cells. Individual values from at least three independent experiments are shown. H-I) MBA-m1 ameliorates dermatitis in Tnfr1-KO HoipE-KO mice. H) Representative images of mice before and after 2 weeks' treatment with MBA-m1. I) Severity score of dermatitis assessed after and before treatment with the inhibitor. […] To quantify the sore of region affected, 0 values were assigned to no lesion, and 1 values were assigned when lesions were found in either neck, back, flank or head, being the sum of these elements taken as the final score. To quantify the character of lesions, 0 values were assigned to no lesions, 1 to excoriations one or small punctuate crust, 2 to multiple punctuate crust or coalescing crust, 3 to erosion, ulceration or bleeding. […]

In another series the target is T1, hMLKL1 (Homo sapiens, UniProt Q8NB16).
T1 construct: GFP; expressed in transfected cells; host or cells: HT-29 MLKL ko cells
T1 sequence (Q8NB16 1-471): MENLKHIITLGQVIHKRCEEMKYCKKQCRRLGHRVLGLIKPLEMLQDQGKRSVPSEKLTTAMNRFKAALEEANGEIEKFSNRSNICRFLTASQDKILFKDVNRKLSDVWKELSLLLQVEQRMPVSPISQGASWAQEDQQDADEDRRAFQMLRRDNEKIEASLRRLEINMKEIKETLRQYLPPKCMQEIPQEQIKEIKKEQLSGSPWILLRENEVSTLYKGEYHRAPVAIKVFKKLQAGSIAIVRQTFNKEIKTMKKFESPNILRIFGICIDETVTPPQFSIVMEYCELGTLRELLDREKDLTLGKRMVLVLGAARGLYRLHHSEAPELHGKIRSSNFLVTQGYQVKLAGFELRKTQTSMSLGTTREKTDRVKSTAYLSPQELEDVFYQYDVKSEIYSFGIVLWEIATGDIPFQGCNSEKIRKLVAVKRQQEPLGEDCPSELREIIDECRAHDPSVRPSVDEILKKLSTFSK
Description: Necroptosis inhibition in HT-29 MLKL ko cells re-expressing hMLKL1. Format: cell-based. Conditions: HT-29 MLKL ko re-expressing hMLKL1. From the text: The species-specificity was expected considering the large difference in the He/groove interactions between mouse and human MLKL (FIGS. 3 and 4).

In another series the test system is HT-29. Description: Necroptosis inhibition assay, TSZ-treated human HT-29 cells. Format: cell-based. From the text: (§2) A-B) Dose-dependence of the inhibitory effect of MBA-h1 (A) or MBA-m1M (B) on necroptotic cell death in human (HT-29) and mouse (NIH-3T3) cells. C-D) Effect of MBA-h1 (C) or MBA-m1 (D) on MLKL phosphorylation. E-F) Effect of MBA-h1 (E) or MBA-m1 (F) on MLKL translocation to the plasma membrane. HT-29 (C and E) or NIH-3T3 (D and F) wt cells were TSZ-treated in the presence or not of the inhibitors. NSA was used as a control in C and E. G) Inhibitory effect of MBA-m1 in MLKL ko cells transfected with mMLKL2 or the mutant mMLKL2_I84A_F87A. Cells were transfected with the different variants of MLKL-GFP. The dead cell population was calculated from transfected cells. Individual values from at least three independent experiments are shown. H-I) MBA-m1 ameliorates dermatitis in Tnfr1-KO HoipE-KO mice. H) Representative images of mice before and after 2 weeks' treatment with MBA-m1. I) Severity score of dermatitis assessed after and before treatment with the inhibitor. Tnfr1-KO HoipE-KO (n=3). To quantify the sore of region affected, 0 values were assigned to no lesion, and 1 values were assigned when lesions were found in either neck, back, flank or head, being the sum of these elements taken as the final score. To quantify the character of lesions, 0 values were assigned to no lesions, 1 to excoriations one or small punctuate crust, 2 to multiple punctuate crust or coalescing crust, 3 to erosion, ulceration or bleeding. Data are presented as mean values±s.e.m.
(§3) To evaluate the necroptotic potential of the different mMLKL isoforms, each of the three isoforms were re-expressed in NIH-3T3 MLKL knock out (ko) cells following induction of necroptosis with a mixture of TNF, a Smac mimetic compound (LCL-161) and the pan-caspase inhibitor zVAD (TSZ), which is the most commonly used necroptosis-inducing cocktail. The inventors quantified cell death by flow cytometry (FIG. 1B) and confocal microscopy (FIG. 1C) using propidium iodide (PI) as a marker of irreversible plasma membrane disruption. As expected, mMLKL3 was intrinsically active, on account of its lack of the psK domain. […]

Series [2] relates to MLKL. Description: MLKL translocation to the plasma membrane, TSZ-treated HT-29 wt cells. The series is classed as cell-based, human. To be noted: FIG. 6E.
Source text: as §1

The next series has as its system NIH-3T3 WT cells. The experiment in a line: Necroptosis inhibition assay, TSZ-treated mouse NIH-3T3 WT cells. Format: cell-based.
Source text: as §2, §3

The next series addresses T2, mMLKL2_I84A_F87A (Mus musculus, UniProt Q9D2Y4, F87A/I84A).
T2 construct: GFP; expressed in transfected cells
T2 sequence (Q9D2Y4 1-464 isoform Q9D2Y4-2 I84A/F87A): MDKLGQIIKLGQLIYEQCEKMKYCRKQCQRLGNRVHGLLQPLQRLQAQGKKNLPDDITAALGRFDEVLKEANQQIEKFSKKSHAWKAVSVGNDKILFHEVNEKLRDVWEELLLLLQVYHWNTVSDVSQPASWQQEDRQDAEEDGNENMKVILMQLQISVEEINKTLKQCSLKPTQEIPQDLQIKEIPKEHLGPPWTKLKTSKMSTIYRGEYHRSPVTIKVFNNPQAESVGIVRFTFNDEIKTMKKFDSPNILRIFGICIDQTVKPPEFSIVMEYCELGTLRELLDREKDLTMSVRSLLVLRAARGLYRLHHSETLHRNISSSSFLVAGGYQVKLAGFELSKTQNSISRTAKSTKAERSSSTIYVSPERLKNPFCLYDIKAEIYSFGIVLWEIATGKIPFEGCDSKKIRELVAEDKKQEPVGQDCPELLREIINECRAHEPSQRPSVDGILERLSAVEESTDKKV
The experiment in a line: Cell death assay in MLKL ko cells transfected with mutant mMLKL2_I84A_F87A. The series is classed as cell-based. To be noted: FIG. 6G.
Source text: as §1

The test system of series [3] is phosphorylated MLKL. Description: MLKL phosphorylation, Western-blot, TSZ-treated NIH-3T3 wt cells. The series is classed as cell-based, mouse. To be noted: FIG. 6D.
Source text: as §1

For series [4], the system named is MLKL. The experiment in a line: MLKL translocation to the plasma membrane, TSZ-treated NIH-3T3 wt cells. Format: cell-based, mouse. Conditions: FIG. 6F.
Source text: as §1

In another series the test system is Tnfr1KO;HoipEKO mice. The experiment in a line: Necroptosis-driven dermatitis in Tnfr1KO;HoipEKO mice. Format: in vivo, mouse. Conditions: treated daily for three weeks from 30 to 40 days of age, end of treatment.
Source text: as §2, with “H) Representative images of mice before and after 2 weeks' treatment with MBA-m1.” left out, “values±s.e.m. […]” for “values±s.e.m.”

For a further series, the target named is T3, mMLKL2 (Mus musculus, UniProt Q9D2Y4).
T3 construct: GFP; expressed in transfected cells; host or cells: NIH-3T3 MLKL ko cells
T3 sequence (Q9D2Y4 1-464 isoform Q9D2Y4-2): T2 sequence (Q9D2Y4 1-464 isoform Q9D2Y4-2 I84A/F87A) with A84I, A87F
The experiment in a line: Necroptosis inhibition in NIH MLKL ko cells containing mMLKL2. The series is classed as cell-based.
Source text: as §1

`CN1CCN(c2ccc(-c3cccc(NC(=O)c4ccc5ccccc5c4)c3)nn2)CC1` [MBA-h1, N-[3-[6-(4-methylpiperazin-1-yl)pyridazin-3-yl]phenyl]naphthalene-2-carboxamide]: the “effect on MLKL phosphorylation” value in the series on phosphorylated MLKL [1] is given as “none of the compounds blocked the phosphorylation of MLKL”. Besides, the inhibition of necroptosis entry against hMLKL1 was “inhibited necroptosis”; in the series with HT-29 (human HT-29 cells, dose-dependent (FIG. 6A)) it was “specifically inhibited necroptosis”. Further, the “concentrations at which inhibitory activity was observed” value in the series on HT-29 (HT-29 cells, FIG. 6A) was “lower than 10 μM”. Moreover, the toxicity entry in the series with HT-29 (at inhibitory concentrations, FIG. 6A) is “without evidence of toxicity”. Further, the “effect on MLKL translocation to the plasma membrane” value (“effect on MLKL translocation” for short) in the series with MLKL [2] is listed as “potently interfered with MLKL translocation to the plasma membrane”.
On to `COc1ccc2nc(C)cc(Nc3ccc(Oc4ccc5ccccc5c4)c(Cl)c3)c2c1` [MBA-m1, N-(3-chloro-4-naphthalen-2-yloxyphenyl)-6-methoxy-2-methylquinolin-4-amine], for which the “concentrations at which necroptosis is inhibited” value with NIH-3T3 WT cells (NIH-3T3 cells, FIG. 6B, compared with MBA-h1 (lower than 10 μM)) was “able to inhibit necroptosis at similar concentrations”. In addition, in the series on NIH-3T3 WT cells (higher concentrations, FIG. 6B), the “concentrations at which toxicity was presented” value lay in the range of 12.5 to 50 µM. Also, the inhibition of necroptosis result is listed as “specifically inhibited necroptosis” in the series on NIH-3T3 WT cells (mouse NIH-3T3 WT cells, dose-dependent (FIG. 6B)) and “had the same effect” on mMLKL2. On mMLKL2_I84A_F87A, the “inhibition of cell death mediated by mutant mMLKL2_I84A_F87A” value is “inert to inhibition”. Moreover, the “effect on MLKL phosphorylation” value in the series on phosphorylated MLKL [3] is reported as “none of the compounds blocked the phosphorylation of MLKL”. In the series on MLKL [4], the “effect on MLKL translocation” value is recorded as “potently interfered with MLKL translocation to the plasma membrane”. The “dermatitis, severity score of skin lesions” value in the series with Tnfr1KO;HoipEKO mice is “significantly ameliorated dermatitis”.
On to `COc1nccnc1NS(=O)(=O)c1ccc(NC(=O)/C=C/c2ccc([N+](=O)[O-])s2)cc1` [NSA, reference compound], for which the “effect on MLKL translocation” value in the series with MLKL [2] was “interfered with MLKL translocation to the plasma membrane”.
